Measured values reported in patent US11492331B2, “Redox substrates for leukocyte esterase” (THE BOARD OF REGENTS OF THE UNIVERSITY OF TEXAS SYSTEM, priority 2017, dated 2022).
≈ marks a conversion by molar mass, not a printed value. Structures can show the parent of a compound that is named as a salt.

Tests used:
[1] = tested on: leukocyte esterase (LE); assay: Kinetics of reaction with LE by ICECEA (Michaelis-Menten); format: biochemical, human; details: 6.0 nM LE; for Km / kcat: 1-40 μM compound, PBS pH 7.40, 21° C.; for kcat Km^−1: PBS pH 7.40, Table 2
Description: FIG. 2. Michaelis-Menten plots for 6.0 nM LE and 1-40 μM compound: (a) I, (b) II, and (c) III, in PBS (pH 7.40). The solid lines represent the best fit to the experimental points based on the nonlinear regression.
The properties of compounds I-III as LE substrates were further investigated by determining their kinetics of reaction with LE (reaction 1). The initial rate of reaction 1 was measured by ICECEA at a constant LE concentration (cLE=6.0 nM; MW=29 kDa) and under the condition of cLE<<ccompound I-III(ccompound I-III=1-40 μM). The assays were conducted within a linear range of calibration plot for HQ at a GC electrode. One unit (U) of LE activity was defined as the amount of enzyme that catalyzed the hydrolysis of 1.0 μmole of a compound I-III per minute in a PBS solution at room temperature (21° C.). The LE activity (U L^−1) was calculated from the equation
[formula] where AS is an assay slope equal to the slope of rising I-t segment and CS is a calibration slope calculated from the I-t steps of ICECEA traces similar to those shown in FIG. 1. […] The analysis of such plots using the Michaelis-Menten kinetics yielded the Michaelis constants Km and turnover numbers kcat, which are shown in Table 1.

[2] = Solubility in water by UV-visible spectrophotometry; format: physicochemical; details: thermodynamic from solid, room temperature (21° C.), A270
Description: Solubility. The solubility of compounds I-III was determined by UV-visible spectrophotometry. The compounds were dissolved in water at room temperature (21° C.) to make a series of solutions with increasing concentration. The solutions were stirred continuously and their spectra were recorded until steady-state equilibrium was reached. Below the solubility limit, the steady-state background-corrected absorbance of solution at 270 nm (A270) was directly proportional to the compound concentration as expected by the Beer-Lambert law. Above the solubility limit, the absorbance steadily levelled off. The low- and high-concentration regions of plots A270 vs. compound concentration were linearized and extrapolated to a crossing point, which was taken as the solubility of compound.

[3] = tested on: leukocyte esterase (LE) of white blood cell (WBC) suspensions; assay: Electrochemical LE assay (ICECEA) of human leukocyte suspensions; format: biochemical; details: for Average activity of single WBC: 100 μM substrate, pH 7.40 PBS, 0.40 V, from slopes of FIG. 3
Description: FIG. 3. Dependence of LE activity on the white blood cell (WBC) count in leukocyte suspensions determined by using ICECEA and compound: (a) I, (b) II, and (c) III. Assay solution, 100 μM substrate I, II, or III in a pH 7.40 PBS solution. Concentration of HQ calibration spikes, 0.54 μM. Dilution factor, 100×. Potential, 0.40 V.
Finally, the compounds I-III were tested in the development of electrochemical LE assay using the ICECEA. The assay was optimized with respect to the detection potential, sample dilution factor, and solution composition (pH, concentration). Such assay was used to determine the esterolytic activity of a series of human leukocyte suspensions. […] Accordingly, the average esterolytic activity of single WBC calculated using the slopes of plots in FIG. 3 was the highest when determined using a compound III (Table 2).
Preparation of Leukocyte Suspensions. The original suspension of leukocytes was diluted 10 times with a PBS solution that contained 10 vol. % DMSO and left for 30 min on a shaker table at 60 rpm to lyse the leukocytes chemically. Such a suspension preserved a constant esterolytic activity for at least 5 days when stored in a refrigerator at 4° C. It was used as a solution C (vide infra) for the ICECEA.

[4] = tested on: leukocyte esterase (LE); assay: ICECEA test of recognition of compounds by LE as substrates (release of hydroquinone); format: biochemical, human; details: 60 μg mL^−1 compound, 86.7 μg L^−1 LE protein, pH 7.40 PBS, 0.40 V
Description: FIGS. 1A-B. (A) ICECEA I-t trace recorded at 0.40 V in a stirred pH 7.40 assay solution containing a tested compound. Each current step is due to the addition of hydroquinone calibrating aliquot to a solution. […] Otherwise, this segment was flat. (B) ICECEA current-time (I-t) traces recorded at a GC electrode in a stirred assay solution of compound (a) I, (b) II, (c) III. Trace # is for a precursor 1 to compounds I-III (Scheme 2). Arrows indicate the addition of 50 μL aliquots of hydroquinone (HQ) and leukocyte esterase (LE) to generate 0.54 μM HQ and 86.7 μg L^−1 LE protein in a solution. Assay solution, pH 7.40 PBS solution containing 60 μg mL^−1 of compound I-III or precursor 1. Traces were overlaid and shortened to show only the linear portion of ascending I-t segments. Potential, 0.40 V.
The initial electrochemical tests were performed to assess a degree of the recognition of compounds I-III by LE as its substrates. […]
The ICECEA was conducted by using phosphate buffer saline (PBS) solutions (pH 7.40, 154 mM NaCl) that contained either a tested compound, HQ, or LE. The current flowing through the GC electrode was measured while spiking 5.00 mL of a stirred assay solution of tested compound with triplicate aliquots of HQ solution and an aliquot of LE solution (FIG. 1). […]

| Km [1] [µM] | kcat [1] [s⁻¹] | kcat Km^−1 [1] [M⁻¹ s⁻¹] | solubility [2] [µg/mL] | recognition by LE as substrate (rising I-t segment after LE addition) [4] | SMILES | Average activity of single WBC [3] [nU] | detection limit of LE assay ([3]; human leukocyte suspensions, ICECEA) [WBC μL^−1] |
| --- | --- | --- | --- | --- | --- | --- | --- |
| 12 | 3.2 | 270000 | 50 (≈ 93.5 µM) |  | C[C@H](NS(=O)(=O)c1cccnc1)C(=O)Oc1ccc(OC(=O)[C@H](C)NS(=O)(=O)c2cccnc2)cc1 [Compound I, 4-(((pyridin-3-ylsulfonyl)-L-alanyl)oxy)phenyl (pyridin-3-ylsulfonyl)-L-alaninate] | 0.8 |  |
|  |  |  |  | no rising I-t segment | C[C@H](N)C(=O)Oc1ccc(OC(=O)[C@H](C)N)cc1 [precursor 1, 1,4-phenylene (2S,2′S)-bis(2-aminopropanoate)-bis hydrochloride] |  |  |
| 11 | 6.4 | 580000 | 4000 (≈ 6150 µM) |  | COC(=O)c1cncc(S(=O)(=O)N[C@@H](C)C(=O)Oc2ccc(OC(=O)[C@H](C)NS(=O)(=O)c3cncc(C(=O)OC)c3)cc2)c1 [Compound III, methyl 5-{[(2S)-1-(4-{[(2S)-2-[5-(methoxycarbonyl)pyridine-3-sulfonamido]propanoyl]oxy}phenoxy)-1-oxopropan-2-yl]sulfamoyl}pyridine-3-carboxylate] | 4.5 | 20 |
| 14 | 5.3 | 380000 | 500 (≈ 841 µM) |  | COc1ccc(S(=O)(=O)N[C@@H](C)C(=O)Oc2ccc(OC(=O)[C@H](C)NS(=O)(=O)c3ccc(OC)nc3)cc2)cn1 [Compound II, 4-((((6-methoxypyridin-3-yl)sulfonyl)-L-alanyl)oxy)phenyl ((6-methoxypyridin-3-yl)sulfonyl)-L-alaninate] | 1.5 |  |
